# Source: ChEMBL document CHEMBL5380834, “Design, Synthesis, and Biological Evaluation of Androgen Receptor (AR) Antagonist-Heat Shock Protein 90 (Hsp90) Inhibitor Conjugates for Targeted Therapy of Castration-Resistant Prostate Cancer” (J Med Chem, 2023)
# Activity calls are given as the source filed them. The calls are words filed in the database; no cut-off is given here.
# Key:
# LNCaP [1] = test: Cytotoxicity against AR-positive human LNCaP cells assessed as inhibition of cell growth incubated for 5 days in presence of AR agonist, R1881 in charcoal stripped serum by WST-1 assay; assay type: functional, cell-based; details: 120 h
# CWR22R [2] = test: Antitumor activity against human 22Rv1 cells xenografted in BALB/c nude mouse assessed as downregulation of AR-V7 level at 2.5 mg/kg, ip administered once every 4th day for 3 weeks; assay type: functional, organism-based
# [3] = Toxicity in BALB/c nude mouse xenografted with human LNCaP cells assessed as animal weight loss at 5 mg/kg, ip administered once every 4th day for 3 weeks; assay type: organism-based; details: in vivo, 504 h
# CWR22R [4] = test: Antitumor activity against human 22Rv1 cells xenografted in BALB/c nude mouse assessed as downregulation of AR-FL level at 2.5 mg/kg, ip administered once every 4th day for 3 weeks; assay type: functional, organism-based
# LNCaP [5] = test: animal or person; details: Mus musculus, po, 504 h, read-out: TGI
# Description: Antitumor activity against human LNCaP cells xenografted in BALB/c nude mouse assessed as inhibition of tumor growth at 5 mg/kg, po administered once every 4th day for 3 weeks
# CWR22R [6] = test: Cytotoxicity against human 22Rv1 cells assessed as inhibition of cell growth incubated for 5 days in presence of AR agonist, R1881 by WST-1 assay; assay type: functional, cell-based; details: 22Rv1, 120 h
# CWR22R [7] = test: Induction of apoptosis in human 22Rv1 cells assessed as late apoptotic cells at 100 nM measured for 48 hrs by flow cytometry assay (reference value: 3.96%); assay type: functional
# LNCaP [8] = test: Induction of apoptosis in human LNCaP cells assessed as late apoptotic cells at 1000 nM measured for 48 hrs by flow cytometry assay (reference value: 1.29%); assay type: functional
# [9] = target: T1, Androgen receptor (Homo sapiens) (UniProt P10275); test: Induction of full length AR degradation in human LNCaP cells assessed as maximum degradation at 100 nM measured after 12 hrs relative to control; assay type: cell-based
# T1 sequence (whole entry): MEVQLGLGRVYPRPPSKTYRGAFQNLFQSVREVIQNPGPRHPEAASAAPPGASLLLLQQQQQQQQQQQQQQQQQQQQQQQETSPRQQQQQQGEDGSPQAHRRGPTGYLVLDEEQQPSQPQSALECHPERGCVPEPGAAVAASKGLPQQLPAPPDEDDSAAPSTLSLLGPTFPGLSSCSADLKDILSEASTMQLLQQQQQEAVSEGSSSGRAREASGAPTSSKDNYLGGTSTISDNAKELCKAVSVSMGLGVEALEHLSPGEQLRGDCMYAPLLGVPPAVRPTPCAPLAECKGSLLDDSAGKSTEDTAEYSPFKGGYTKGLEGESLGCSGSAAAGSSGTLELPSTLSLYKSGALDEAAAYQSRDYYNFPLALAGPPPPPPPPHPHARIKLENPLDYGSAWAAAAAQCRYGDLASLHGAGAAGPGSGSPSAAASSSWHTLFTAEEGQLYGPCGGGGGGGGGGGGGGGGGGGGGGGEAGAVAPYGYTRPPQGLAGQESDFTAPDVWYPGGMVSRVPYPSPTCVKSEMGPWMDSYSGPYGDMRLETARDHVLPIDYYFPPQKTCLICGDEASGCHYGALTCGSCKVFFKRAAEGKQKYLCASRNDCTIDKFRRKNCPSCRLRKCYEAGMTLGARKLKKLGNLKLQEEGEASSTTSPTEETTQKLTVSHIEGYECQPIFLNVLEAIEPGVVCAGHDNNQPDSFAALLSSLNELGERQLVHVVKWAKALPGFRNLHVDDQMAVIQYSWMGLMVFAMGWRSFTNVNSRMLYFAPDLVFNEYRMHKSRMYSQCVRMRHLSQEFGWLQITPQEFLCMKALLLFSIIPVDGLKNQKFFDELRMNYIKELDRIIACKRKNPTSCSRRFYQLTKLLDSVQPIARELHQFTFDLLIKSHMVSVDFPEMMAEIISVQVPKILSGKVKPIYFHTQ
# [10] = test system: Androgen receptor (Homo sapiens), P10275 [UNDEFINED MUTATION]; test: Induction of AR-V7 degradation in human 22Rv1 cells measured upto 24 hrs by Western blot analysis; assay type: cell-based; details: dose 1000.0 nM
# LNCaP [11] = test: Induction of apoptosis in human LNCaP cells assessed as increase in PARP level at 1 uM measured after 48 hrs by Western blot analysis; assay type: functional, cell-based
# LNCaP [12] = test: Downregulation of AR-regulated FKBP5 protein level in human LNCaP cells measured for 48 hrs in presence of AR agonist, R1881 in charcoal stripped serum by Western blot analysis; assay type: functional, cell-based; details: dose 300-1000 nM
# CWR22R [13] = test: Induction of apoptosis in human 22Rv1 cells assessed as viable cells at 100 nM measured for 48 hrs by flow cytometry assay (reference value: 91.3%); assay type: functional; details: read-out: Activity
# CWR22R [14] = test: Induction of cell cycle arrest in human 22Rv1 cells assessed as accumulation of cells at G2/M phase at 100 to 1000 nM measured for 24 hrs by flow cytometry analysis; assay type: functional, cell-based; details: dose 100-1000 nM
# LNCaP [15] = test: Induction of apoptosis in human LNCaP cells assessed as early apoptotic cells at 100 nM measured for 48 hrs by flow cytometry assay (reference value: 1.48%); assay type: functional
# [16] = Toxicity in BALB/c nude mouse xenografted with human 22Rv1 cells assessed as animal weight loss at 5 mg/kg, ip administered once every 4th day for 3 weeks; assay type: organism-based, CWR22R; details: in vivo, 504 h
# LNCaP [17] = test: Induction of apoptosis in human LNCaP cells assessed as early apoptotic cells at 1000 nM measured for 48 hrs by flow cytometry assay (reference value: 1.48%); assay type: functional
# [18] = target: T1, Androgen receptor (Homo sapiens); test: Induction of full length AR degradation in human RWPE-1 cells at 10 uM measured for 24 hrs by Western blot analysis; assay type: cell-based
# LNCaP [19] = test: Downregulation of AR-regulated TMPRSS2 protein level in human LNCaP cells measured for 48 hrs in presence of AR agonist, R1881 in charcoal stripped serum by Western blot analysis; assay type: functional, cell-based; details: dose 300-1000 nM
# LNCaP [20] = test: Induction of apoptosis in human LNCaP cells assessed as increase in caspase-3 level at 1 uM measured after 48 hrs by Western blot analysis; assay type: functional, cell-based
# LNCaP [21] = test: Induction of apoptosis in human LNCaP cells assessed as necrotic cells at 1000 nM measured for 48 hrs by flow cytometry assay (reference value: 0.35%); assay type: functional
# CWR22R [22] = test: Induction of apoptosis in human 22Rv1 cells assessed as necrotic cells at 100 nM measured for 48 hrs by flow cytometry assay (reference value: 0.19%); assay type: functional
# [23] = Cytotoxicity against human RWPE-1 cells assessed as inhibition of cell growth incubated for 5 days by CCK-8 assay; assay type: toxicity, cell-based
# CWR22R [24] = test: Induction of apoptosis in human 22Rv1 cells assessed as late apoptotic cells at 1000 nM measured for 48 hrs by flow cytometry assay (reference value: 3.96%); assay type: functional
# LNCaP [25] = test: Induction of apoptosis in human LNCaP cells assessed as viable cells at 100 nM measured for 48 hrs by flow cytometry assay (reference value: 96.9%); assay type: functional; details: read-out: Activity
# [26] = Drug uptake in human 22Rv1 cells at 1 uM measured at 1 to 24 hrs by LC-MS/MS analysis; assay type: ADME, cell-based; details: cwr22r, time 1-24 hrs
# LNCaP [27] = test: Induction of apoptosis in human LNCaP cells assessed as viable cells at 1000 nM measured for 48 hrs by flow cytometry assay (reference value: 96.9%); assay type: functional; details: read-out: Activity
# CWR22R [28] = test: Induction of apoptosis in human 22Rv1 cells assessed as increase in PARP level at 1 uM measured after 48 hrs by Western blot analysis; assay type: functional, cell-based
# LNCaP [29] = test: Induction of apoptosis in human LNCaP cells assessed as late apoptotic cells at 100 nM measured for 48 hrs by flow cytometry assay (reference value: 1.29%); assay type: functional
# CWR22R [30] = test: Induction of apoptosis in human 22Rv1 cells assessed as necrotic cells at 1000 nM measured for 48 hrs by flow cytometry assay (reference value: 0.19%); assay type: functional
# CWR22R [31] = test: Induction of apoptosis in human 22Rv1 cells assessed as early apoptotic cells at 1000 nM measured for 48 hrs by flow cytometry assay (reference value: 4.59%); assay type: functional
# CWR22R [32] = test: Induction of apoptosis in human 22Rv1 cells assessed as early apoptotic cells at 100 nM measured for 48 hrs by flow cytometry assay (reference value: 4.59%); assay type: functional
# LNCaP [33] = test: Downregulation of AR-regulated PSA protein level in human LNCaP cells measured for 48 hrs in presence of AR agonist, R1881 in charcoal stripped serum by Western blot analysis; assay type: functional, cell-based; details: dose 300-1000 nM
# CWR22R [34] = test: Induction of apoptosis in human 22Rv1 cells assessed as increase in caspase-3 level at 1 uM measured after 48 hrs by Western blot analysis; assay type: functional, cell-based
# [35] = Drug uptake in human 22Rv1 cells measured after 12 hrs by LC-MS/MS analysis; assay type: ADME, cell-based; details: cwr22r, 1 µM
# CWR22R [36] = test: Induction of apoptosis in human 22Rv1 cells assessed as viable cells at 1000 nM measured for 48 hrs by flow cytometry assay (reference value: 91.3%); assay type: functional; details: read-out: Activity
# LNCaP [37] = test: Induction of cell cycle arrest in human LNCaP cells assessed as accumulation of cells at G2/M phase at 100 to 1000 nM measured for 24 hrs by flow cytometry analysis; assay type: functional, cell-based; details: dose 100-1000 nM
# LNCaP [38] = test: Induction of apoptosis in human LNCaP cells assessed as necrotic cells at 100 nM measured for 48 hrs by flow cytometry assay (reference value: 0.35%); assay type: functional
structure (smiles),measurement,setting,value
CNC(=O)c1ccc(N2C(=S)N(c3ccc(C#N)c(C(F)(F)F)c3)C(=O)C2(C)C)cc1F [ENZALUTAMIDE],IC50,LNCaP [1],52 nM
same,Activity,CWR22R [2],inactive
same,Activity,[3],10%
same,Activity,CWR22R [4],inactive
same,inhibition in vivo at 5 mg/kg,LNCaP [5],50%
same,IC50,CWR22R [6],> 1000 nM
CC(C)c1cc(-c2n[nH]c(=O)n2-c2ccc(CN3CCN(CC4CCN(CC5CCN(c6ncc(C(=O)N[C@H]7CC[C@H](Oc8ccc(C#N)c(Cl)c8)CC7)cn6)CC5)CC4)CC3)cc2)c(O)cc1O,Activity,CWR22R [7],12.8%
same,IC50,LNCaP [1],33.4 nM
same,Activity,LNCaP [8],6.91%
same,Activity,[9],> 90%
same,Activity,[10],Dose-Dependent Effect
same,Activity,LNCaP [11],Active
same,Activity,LNCaP [12],Dose-Dependent Effect
same,viability at 0.1 µM,CWR22R [13],80.1%
same,Activity,CWR22R [14],Active
same,Activity,LNCaP [15],4.05%
same,Activity,[16],~ 10%
same,Activity,[3],10%
same,Activity,LNCaP [17],4.87%
same,Activity,[18],inactive
same,Activity,LNCaP [19],Dose-Dependent Effect
same,Activity,LNCaP [20],Active
same,Activity,LNCaP [21],1.13%
same,Activity,CWR22R [22],0.066%
same,IC50 at 5 days,[23],241 nM
same,Activity,CWR22R [24],16.1%
same,viability at 0.1 µM,LNCaP [25],91.9%
same,Drug uptake,[26],Active
same,viability at 1 µM,LNCaP [27],87.1%
same,Activity,CWR22R [28],Active
same,IC50,CWR22R [6],27 nM
same,Activity,LNCaP [29],3.71%
same,Activity,CWR22R [30],0.085%
same,Activity,CWR22R [31],13.5%
same,Activity,CWR22R [32],6.96%
same,Activity,LNCaP [33],Dose-Dependent Effect
same,Activity,CWR22R [34],Active
same,Drug uptake,[35],Dose-Dependent Effect
same,viability at 1 µM,CWR22R [36],70.3%
same,Activity,LNCaP [37],Active
same,Activity,LNCaP [38],0.32%
